{
  "source": "PubChem BioAssay AID1259409",
  "about": "(Chemical Carcinogenesis Research Information System (CCRIS), 2018)",
  "origin": "cited, not measured here",
  "test_system": "rodent chemically induced tumor inhibition, incidence and multiplicity",
  "experiment": "CCRIS tumor inhibitor studies",
  "conditions": "Route [Inhibitor]: ORAL",
  "data": [
    {"molecule": "Cc1c(-c2cnccn2)ssc1=S", "values": [
      {"measurement": "tumour outcome (control, treated, inhibition, significance)", "setting": "Carcinogen: DIETHYLNITROSAMINE, 55-18-5, Dose [Inhibitor]: 0, 600 MG/KG DIET FOR DURATION OF STUDY BEGINNING 1 WK PRIOR TO CARCINOGEN TREATMENT (STUDY DURATION: 25 WK), Species: HAMSTER, Strain/Sex: SYRIAN/MALE, Target Tissue: Type of Lesion: TRACHEA: PAPILLOMA, Dose [Carcinogen]: 17.8 MG/KG BW 2/WK FOR 20 WK, Promoter: NONE USED", "result": "100%, 95%, 5%, not significant"},
      {"measurement": "tumour outcome (control, treated, inhibition, significance)", "setting": "Carcinogen: N-BUTYL-N(4-HYDROXYBUTYL)NITROSAMINE, 3817-11-6, Dose [Inhibitor]: 0, 250 MG/KG DIET FOR 6 MO BEGINNING 1 WK PRIOR TO CARCINOGEN TREATMENT (STUDY DURATION: 6 MO), Species: MOUSE, Strain/Sex: BDF/MALE, Target Tissue: Type of Lesion: URINARY BLADDER: CARCINOMA, Dose [Carcinogen]: 7.5 MG IN 0.1 ML ETHANOL:WATER (20:80) 1/WK FOR 8 WK, Promoter: NONE USED", "result": "35/78 (45%), 23/76 (30%), 33%, p<0.05"},
      {"measurement": "tumour outcome (control, treated, inhibition, significance)", "setting": "Carcinogen: N-BUTYL-N-(4-HYDROXYBUTYL)NITROSAMINE, 3817-11-6, Dose [Inhibitor]: 0, 100 MG/KG DIET FOR 6 MO BEGINNING 1 WK PRIOR TO CARCINOGEN TREATMENT (STUDY DURATION: 6 MO), Species: MOUSE, Strain/Sex: BDF/MALE, Target Tissue: Type of Lesion: URINARY BLADDER: CARCINOMA, Dose [Carcinogen]: 7.5 MG IN 0.1 ML ETHANOL:WATER (20:80) 1 WK FOR 8 WK, Promoter: NONE USED", "result": "27/70 (39%), 27/70 (39%), 0%, not significant"},
      {"measurement": "tumour outcome (control, treated, inhibition, significance)", "setting": "Carcinogen: N-BUTYL-N-(4-HYDROXYBUTYL)NITROSAMINE, 3817-11-6, Dose [Inhibitor]: 0, 200 MG/KG DIET FOR 6 MO BEGINNING 1 WK PRIOR TO CARCINOGEN TREATMENT (STUDY DURATION: 6 MO), Species: MOUSE, Strain/Sex: BDF/MALE, Target Tissue: Type of Lesion: URINARY BLADDER: CARCINOMA, Dose [Carcinogen]: 7.5 MG IN 0.1 ML ETHANOL:WATER (20:80) 1/WK FOR 8 WK, Promoter: NONE USED", "result": "30/73 (41%), 27/71 (38%), 7%, not calculated"},
      {"measurement": "tumour outcome (control, treated, inhibition, significance)", "setting": "Carcinogen: N-BUTYL-N-(4-HYDROXYBUTYL)NITROSAMINE, 3817-11-6, Dose [Inhibitor]: 0, 500 MG/KG DIET FOR 76 D THEN 125 MG/KG DIET FOR DURATION OF STUDY (STUDY DURATION: 6 MO), Species: MOUSE, Strain/Sex: BDF/MALE, Target Tissue: Type of Lesion: URINARY BLADDER: CARCINOMA, Dose [Carcinogen]: 7.5 MG IN 0.1 ML ETHANOL:WATER (20:80) 1/WK FOR 8 WK, Promoter: NONE USED", "result": "35/78 (45%), 23/78 (29%), 36%, p<0.05"},
      {"measurement": "tumour outcome (control, treated, inhibition, significance)", "setting": "Carcinogen: N-METHYL-N'-NITRO-N-NITROSOGUANIDINE, 70-25-7, Dose [Inhibitor]: 0, 0.02% IN DIET FOR 12 WK BEGINNING 1 WK PRIOR TO CARCINOGEN TREATMENT (STUDY DURATION: 80 WK), Species: RAT, Strain/Sex: WISTAR/MALE, Target Tissue: Type of Lesion: GLANDULAR STOMACH: ADENOCARCINOMA, Dose [Carcinogen]: 100 PPM IN DRINKING WATER FOR 10 WK, Promoter: NONE USED", "result": "17/30 (57%), 11/30 (37%), 35%, not calculated"},
      {"measurement": "tumour outcome (control, treated, inhibition, significance)", "setting": "Carcinogen: N-METHYL-N'-NITRO-N-NITROSOGUANIDINE, 70-25-7, Dose [Inhibitor]: 0, 0.04% IN DIET FOR 12 WK BEGINNING 1 WK PRIOR TO CARCINOGEN TREATMENT (STUDY DURATION: 80 WK), Species: RAT, Strain/Sex: WISTAR/MALE, Target Tissue: Type of Lesion: GLANDULAR STOMACH: ADENOCARCINOMA, Dose [Carcinogen]: 100 PPM IN DRINKING WATER FOR 10 WK, Promoter: NONE USED", "result": "17/30 (57%), 5/30 (17%), 70%, p<0.01"},
      {"measurement": "tumour outcome (control, treated, inhibition, significance)", "setting": "Carcinogen: N-METHYL-N'-NITRO-N-NITROSOGUANIDINE, 70-25-7, Dose [Inhibitor]: 0, 0.04% IN DIET FOR 12 WK BEGINNING 1 WK PRIOR TO CARCINOGEN TREATMENT (STUDY DURATION: 81 WK), Species: RAT, Strain/Sex: WISTAR/MALE, Target Tissue: Type of Lesion: GLANDULAR STOMACH: ADENOCARCINOMA, Dose [Carcinogen]: 100 PPM IN DRINKING WATER FOR 10 WK, Promoter: NONE USED", "result": "17/30 (57%), 5/30 (17%), 70%, p<0.01"},
      {"measurement": "tumour outcome (control, treated, inhibition, significance)", "setting": "Carcinogen: N-METHYL-N'-NITRO-NITROSOGUANIDINE, 70-25-7, Dose [Inhibitor]: 0, 0.02% IN DIET FOR 12 WK BEGINNING 1 WK PRIOR TO CARCINOGEN TREATMENT (STUDY DURATION: 81 WK), Species: RAT, Strain/Sex: WISTAR/MALE, Target Tissue: Type of Lesion: GLANDULAR STOMACH: ADENOCARCINOMA, Dose [Carcinogen]: 100 PPM IN DRINKING WATER FOR 10 WK, Promoter: NONE USED", "result": "17/30 (57%), 11/30 (37%), 35%, not significant"},
      {"measurement": "outcome", "setting": "Carcinogen: N-NITROSOBIS(2-OXOPROPYL)AMINE, 60599-38-4, Dose [Inhibitor]: 0, 300 MG/KG IN DIET FOR 28 WK BEGINNING 2 WK PRIOR TO CARCINOGEN TREATMENT (STUDY DURATION: 28 WK), Species: HAMSTER, Strain/Sex: SYRIAN/FEMALE, Target Tissue: Type of Lesion: PANCREAS: DUCTAL ADENOCARCINOMA, Dose [Carcinogen]: 15 MG/KG BW 1/WK FOR 12 WK, Promoter: NONE USED", "result": "17/19 (89%), 14/16 (88%), 1 %, not significant"},
      {"measurement": "tumour outcome (control, treated, inhibition, significance)", "setting": "Carcinogen: N-NITROSOBIS(2-OXOPROPYL)AMINE, 60599-38-4, Dose [Inhibitor]: 0, 600 MG/KG IN DIET FOR 28 WK BEGINNING 2 WK PRIOR TO CARCINOGEN TREATMENT (STUDY DURATION: 28 WK), Species: HAMSTER, Strain/Sex: SYRIAN/FEMALE, Target Tissue: Type of Lesion: PANCREAS: DUCTAL ADENOCARCINOMA, Dose [Carcinogen]: 15 MG/KG BW 1/WK FOR 12 WK, Promoter: NONE USED", "result": "17/19 (89%), 9/15 (60%), 33%, p<0.05"},
      {"measurement": "tumour outcome (control, treated, inhibition, significance)", "setting": "Carcinogen: NITROSOBIS(2-OXOPROPYL)AMINE [60599-38-4], Dose [Inhibitor]: 200 PPM IN DIET FOR 4 WK BEGINNING 1 WK PRIOR TO FIRST CARCINOGEN DOSE (STUDY DURATION: 52 WK), Species: HAMSTER, Strain/Sex: SYRIAN/FEMALE, Target Tissue: Type of Lesion: GALL BLADDER: ADENOMA, Dose [Carcinogen]: 10 MG/KG BW 1X/WK FOR 3 WK (STUDY DURATION: 52 WK)", "result": "13.3%, 21.7%, -63%, not significant"},
      {"measurement": "tumour outcome (control, treated, inhibition, significance)", "setting": "Carcinogen: NITROSOBIS(2-OXOPROPYL)AMINE [60599-38-4], Dose [Inhibitor]: 200 PPM IN DIET FOR 4 WK BEGINNING 1 WK PRIOR TO FIRST CARCINOGEN DOSE (STUDY DURATION: 52 WK), Species: HAMSTER, Strain/Sex: SYRIAN/FEMALE, Target Tissue: Type of Lesion: KIDNEY: RENAL CELL ADENOMA, Dose [Carcinogen]: 10 MG/KG BW 1X/WK FOR 3 WK (STUDY DURATION: 52 WK)", "result": "3.3%, 3.4%, -3%, not significant"},
      {"measurement": "tumour outcome (control, treated, inhibition, significance)", "setting": "Carcinogen: NITROSOBIS(2-OXOPROPYL)AMINE [60599-38-4], Dose [Inhibitor]: 200 PPM IN DIET FOR 4 WK BEGINNING 1 WK PRIOR TO FIRST CARCINOGEN DOSE (STUDY DURATION: 52 WK), Species: HAMSTER, Strain/Sex: SYRIAN/FEMALE, Target Tissue: Type of Lesion: KIDNEY: RENAL CELL CARCINOMA, Dose [Carcinogen]: 10 MG/KG BW 1X/WK FOR 3 WK (STUDY DURATION: 52 WK)", "result": "6.7%, 10.3%, -54%, not significant"},
      {"measurement": "tumour outcome (control, treated, inhibition, significance)", "setting": "Carcinogen: NITROSOBIS(2-OXOPROPYL)AMINE [60599-38-4], Dose [Inhibitor]: 200 PPM IN DIET FOR 4 WK BEGINNING 1 WK PRIOR TO FIRST CARCINOGEN DOSE (STUDY DURATION: 52 WK), Species: HAMSTER, Strain/Sex: SYRIAN/FEMALE, Target Tissue: Type of Lesion: LIVER: CHOLANGIOCELLULAR ADENOMA, Dose [Carcinogen]: 10 MG/KG BW 1X/WK FOR 3 WK (STUDY DURATION: 52 WK)", "result": "6.7%, 0.0%, 100%, not significant"},
      {"measurement": "outcome", "setting": "Carcinogen: NITROSOBIS(2-OXOPROPYL)AMINE [60599-38-4], Dose [Inhibitor]: 200 PPM IN DIET FOR 4 WK BEGINNING 1 WK PRIOR TO FIRST CARCINOGEN DOSE (STUDY DURATION: 52 WK), Species: HAMSTER, Strain/Sex: SYRIAN/FEMALE, Target Tissue: Type of Lesion: LIVER: CHOLANGIOCELLULAR CARCINOMA, Dose [Carcinogen]: 10 MG/KG BW 1X/WK FOR 3 WK (STUDY DURATION: 52 WK)", "result": "0.0%, 10.3%, -100%, not significant"}
    ]}
  ]
}
